# Assay: gradient 5% acetonitrile 3 min, to 50% in 2 min, to 85% in 15 min, held 3 min, 100 µL/min
# Settings: column: Zorbax Extend-C18 2.1 x 50 mm; eluents: water / acetonitrile, 0.1% formic acid
# How it was run: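 In both positive and negative ionization mode, a quadrupole time-of-flight mass spectrometer coupled to HPLC analyzed pure standards run in mixtures of ~100 molecules. The Zorbax Extend-C18 column (2.1 × 50 mm, 1.8 μm) was operated at 100 μL/min with water and acetonitrile, each containing 0.1% formic acid. The dead volume was 40 μL and the dwell volume 900 μL. Retention time came from adduct peaks that were computationally picked and individually inspected by hand.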
row,SMILES,RP-LC retention time [s]
1,O=S(=O)(c1cc(-c2nnc(-c3ccccc3)o2)ccc1F)N1CCOCC1,888
2,CCOC(=O)c1nc(NCCCN2CCN(Cc3ccccc3)CC2)c2ccccc2n1,588
3,Cc1ccc2c(c1)C(=O)NC1(CCN(C(=O)NCCc3ccccc3)CC1)N2C,755
4,CC(NC(=O)Cn1cc(C#N)c2ccccc21)c1ccc2c(c1)OCCCO2 (stereo not drawn),881
5,Cc1ccccc1Oc1nccnc1N1CCCC(C(=O)NCc2cccc(C(F)(F)F)c2)C1 (stereo not drawn),1120
6,NS(=O)(=O)c1ccc(CCNCc2ccc(-c3ccc(F)cc3)o2)cc1,643
7,O=C(NCCOc1ccc(F)cc1)C1CN(C(=O)c2cccs2)C1,691
8,CCC/C(C)=C/c1ccc(CC)cn1,708
9,O=C(c1cccs1)N1CCN(c2ccc(=O)n(-c3ccccc3)n2)CC1,733
10,CC(=O)Nc1ccc(NC(=O)C(=O)NCCN2CCN(c3ccc(Cl)cc3)CC2)cc1,588
11,Cc1[nH]c2ccccc2c1C(=O)C(=O)Nc1ccccc1,816
12,CC(C)n1cnnc1-c1nn(C)c2c1CN(C(=O)CC1CCCC1)CC2,732
13,O=C(NCc1ccc(C(F)(F)F)cc1)c1c(O)c2cccnc2n(-c2ccccc2)c1=O,1230
14,COc1ccc(Cl)cc1N(C)C(=O)C1CCCN(c2ncnc3c2nc2n3CCCCC2)C1 (stereo not drawn),871
15,O=C1NC2(CCN(C(=O)c3cccc(F)c3)CC2)N=C1c1cccc(F)c1,821
16,O=C(Nc1ccc(Cl)c(Cl)c1)N1CCN(c2ncc(C(F)(F)F)cc2Cl)CC1,940
17,COc1ccccc1-c1nnc(C2CCN(C(=O)c3ccccc3)CC2)o1,741
18,COc1ccc(Cl)cc1C(=O)NC1CCN(c2cc(-c3cccs3)[nH]n2)C1 (stereo not drawn),802
19,O=C(c1cccs1)N1CCCn2cc(-c3ccccc3F)nc21,666
20,CC(C)(C)C(O)CCNC(=O)Cc1cccs1 (stereo not drawn),673

row,SMILES,RP-LC retention time [s]
1,Cc1ccc(S(=O)(=O)NC2CCS(=O)(=O)C2)cc1[N+](=O)[O-] (stereo not drawn),678
2,O=C(NC1CCCC1)C1CC(=O)N(c2ccc3c(c2)CCN3C(=O)C2CCC2)C1 (stereo not drawn),760
3,CCOc1ccc(S(=O)(=O)N2CCC(C(=O)NCCC3=CCCCC3)CC2)cc1,953
4,CCCn1ccc2oc(C)c(C(=O)N3CCC(N4CCCCC4)CC3)c2c1=O,590
5,COc1cccc(CNC2=NCCNC23CCN(S(=O)(=O)c2ccc4c(c2)CCCC4)CC3)c1,822
6,Cc1nc2cc(N3CC(C(=O)N4CCN(c5ccccc5)CC4)CC3=O)ccc2o1 (stereo not drawn),727
7,COCCCNC(=O)CCC[C@@H]1[C@H]2CCCN3CCC[C@@H](CN1C)[C@@H]23,709
8,CCOC(=O)c1cnc(N2CCc3ccccc32)[nH]c1=O,632
9,COc1ccc(N2CCN(C(=O)C3CCCN(c4nc5ccccc5nc4OC)C3)CC2)cc1 (stereo not drawn),1100
10,Cc1cccc(-c2nc(N3CCCCCC3)c3ccccc3n2)c1,848
11,CC(CNC(=O)C1CCN(C(=O)C2Sc3ccccc3NC2=O)CC1)c1ccccc1 (stereo not drawn),776
12,CC1CCN(C(=O)c2ccc3ccnc(N4CCN(c5ccc(Cl)cc5)CC4)c3c2)CC1,982
13,CC(C)S(=O)(=O)c1ccc(C(=O)N2CC(=O)Nc3ccccc32)cc1,653
14,O=C(O)c1ccc(NCc2nc3ccccc3[nH]2)cc1,896
15,COc1ccc(N2CCN(c3ncc4c(n3)CCN(Cc3cccc(F)c3)C4)CC2)cc1,648
16,C=CCN1CCc2c(cc(O)c(O)c2Br)[C@@H](c2ccccc2)C1,670
17,Cn1c(N2CCCC(C(=O)NC3CCN(Cc4ccccc4)CC3)C2)cc(=O)n(C)c1=O (stereo not drawn),576
18,COc1cccc(C(=O)N2CCC3(CC2)NC(=O)c2ccc(F)cc2N3C)c1,752
19,Fc1ccc(C2Cn3nnc(-c4nc(-c5cccc(F)c5)no4)c3CO2)cc1 (stereo not drawn),1150
20,COc1ccc(-c2ccc(C#N)c(SCC(=O)N3CCN(C)CC3)n2)cc1,583

row,SMILES,RP-LC retention time [s]
1,O=C(Cn1ncc2c3ccccc3n(Cc3ccc(F)cc3)c2c1=O)N1CCN(c2ccccn2)CC1,689
2,O=C([C@@H]1C[C@H](F)CN1S(=O)(=O)c1ccc(F)cc1F)N1CCc2ccccc2C1,906
3,CCOc1ccc(C(=O)N2C[C@H](c3nc(-c4ccncc4)no3)[C@@H](C)C2)cc1,838
4,CNC(=O)N1CCc2nc(-c3ccccc3)ncc2C1,678
5,O=C(c1cncnc1)N1CCCn2ccnc2C1C1CCCC1 (stereo not drawn),572
6,CC1CCCN(CCCNC(=O)CCC(=O)N2CCc3c(c(C(=O)N4CCCC4)nn3C)C2)C1 (stereo not drawn),579
7,CC(C)(CO)NS(=O)(=O)c1cc(-c2nnc(-c3ccccc3)o2)ccc1F,773
8,COc1ccc(C2C(C(=O)NC3CCCCCC3)CCC(=O)N2c2ccc(OC)cc2)cc1 (stereo not drawn),807
9,O=C(Nc1cccc(OCc2nnc(-c3ccccc3)o2)c1)c1ccnc(Cl)c1,926
10,CCN1CCN(c2ncc3c(n2)CCN(Cc2ccc(Cl)c(F)c2)C3)CC1,575
11,O=C(c1ccc(C(F)(F)F)cc1)N1CCN(c2nc(CN3CCOCC3)cs2)CC1,655
12,O=C(NCc1ccc(F)cc1)C1CCN(c2cc(N3CCOCC3)ncn2)CC1,607
13,CC(C)n1c(=O)sc2cc(S(=O)(=O)N3CCC(C(=O)N4CCN(C)CC4)CC3)ccc21,628
14,O=C(Nc1nc(-c2ccc3c(c2)OCO3)cs1)c1ccco1,798
15,CCCN1CCCCc2cc(C(=O)N(C)CC(=O)NC)sc21,791
16,FC(F)(F)c1nc2cc3c(cc2n1Cc1ccc(Br)cc1)OCCO3,1080
17,O=C(Cn1cccn1)N1CCN(c2ncccn2)CC1,567
18,Cn1cc(CCNC(=O)c2ccccc2C(F)(F)F)c2cccnc21,700
19,CCCNC(=O)C1=Cc2cc(Cl)cc(OC)c2OC=C1,977
20,Cc1ccccc1NC(=O)N(C)CC1CCOCC1,726

# Next, values leading:
row,RP-LC retention time [s],SMILES
1,790,COc1cccc(CNc2c(-c3nc(C(C)C)no3)cnc3nc(C)ccc23)c1
2,891,CCOC(=O)c1ccccc1NC(=O)N(Cc1cc(=O)[nH]c2ccccc12)C(C)C
3,682,O=C(NCCn1c(-c2ccc(F)cc2)nc2cccnc21)Nc1ccc2c(c1)OCCO2
4,795,COCc1cc2nn(CC(=O)Nc3ccccc3F)c(=O)n2c(-c2ccccc2)n1
5,682,CCN1CCCC1CNC(=O)c1nc(-c2oc3ccc(OC)cc3c2C)no1 (stereo not drawn)
6,1180,Cc1sc(-c2cc(C(F)(F)F)on2)cc1S(=O)(=O)Nc1ccccc1Cl
7,814,Cc1cc(C)c(NC(=O)Cn2c(C)nc3onc(C)c3c2=O)c(C)c1
8,1430,Cc1cc(C)c(S(=O)(=O)N2CCC(c3noc(-c4ccccc4C)n3)CC2)c(C)c1
9,1360,CC(C)(C)c1ccc(-c2noc(Cn3c(=O)n(CCc4ccccc4)c(=O)c4sccc43)n2)cc1
10,1120,Cc1ccccc1NC(=O)Cn1nc(N2CCCC(C)C2)c2ccccc2c1=O (stereo not drawn)
11,764,CCc1cc(=O)n(CC(=O)NCc2ccc(F)c(Cl)c2)c(N2CCOCC2)n1
12,872,CCn1c(CCC(=O)NCc2ccc(F)cc2F)nc2c(C)cccc2c1=O
13,935,CCc1ccc(C2=C(C)C(N3CCCN(C(=O)C(C)(C)CC)CC3)=NS2(=O)=O)cc1
14,728,COc1ccc(NC(=O)C2CCCN(Cc3nc(-c4cccs4)no3)C2)cc1Cl (stereo not drawn)
15,863,Cc1oc(C2CCN(S(=O)(=O)c3ccc(Cl)cc3)CC2)nc1C(=O)N(C)C
16,894,Cc1cc2c(c(=O)n(-c3ccc(F)cc3)c(=O)n2CC(=O)Nc2ccc(Cl)cc2F)n1C
17,714,CCN(CC)C(=O)C1CCCN1S(=O)(=O)c1cc2c(cc1C)NC(=O)C(C)O2 (stereo not drawn)
18,918,CCN1C(=O)c2cccnc2Sc2cc(NC(=O)c3ccc(C)c(C)c3)ccc21
19,588,CCN1CCN(c2cc(C)c3cc(NC(=S)NCCC(C)C)ccc3n2)CC1
20,811,Cc1ccc(NC(=O)N2CCC(n3cnc4cc(F)ccc4c3=O)CC2)c(C)c1
21,761,COc1ccccc1-c1noc(C2CCCN2C(=O)NCc2ccco2)n1 (stereo not drawn)
22,595,COCc1cc(=O)n(CC(=O)Nc2ccc(C)cc2)c(N)n1
23,763,Cc1ccc(N(C)C(=O)c2cc(C)n3nc(-c4ccccn4)cc3n2)cc1
24,715,Cc1cc2c(cc1NC(=O)CCc1ccccc1)n(C)c(=O)n2C
25,1030,COc1ccccc1-c1nc(COc2cc(C)c3c(C)nn(C)c3n2)c(C)o1
26,1190,CCOc1cccc(-c2noc(-c3nnn(Cc4nc(-c5ccccc5OC)oc4C)c3C)n2)c1
27,1030,Cc1ccc(NC(=O)Cn2c(C)nc3c(sc4nc(-c5ccccc5)ccc43)c2=O)cc1Cl
28,974,Cc1nn2c(CNS(=O)(=O)Cc3ccc(C)c(C)c3)c(-c3ccccc3)nc2s1

# Source: the METLIN SMRT retention time set (Domingo-Almenara et al. 2019)
